# Measured values taken from ChEMBL document CHEMBL1141683, “Substituted aryl pyrimidines as potent and soluble TRPV1 antagonists” (Bioorg Med Chem Lett, 2008).
# What was measured:
# in vivo [1] = conditions: Sprague-Dawley, rat, iv, 1 mg/kg
# physchem [2] = conditions: 0.01N HCl
# physchem [3] = conditions: phosphate buffered saline, pH 7
# physchem [4] = conditions: simulated intestinal fluid
# Rattus norvegicus [5] = species on record: Rattus norvegicus; conditions: in vivo, po, 5 mg/kg
# Rattus norvegicus [6] = species on record: Rattus norvegicus; conditions: in vivo, po, 5 mg/kg; remark: listed apart in the source
# in vivo [7] = conditions: Sprague-Dawley, rat, po, 5 mg/kg
SMILES,clearance (in vivo [1]),solubility (physchem [2]),solubility (physchem [3]),solubility (physchem [4]),Vdss (Rattus norvegicus [5]),AUC (Rattus norvegicus [6]),half-life (in vivo [7])
CC(=O)Nc1nc2c(Oc3cc(-c4ccc(C(F)(F)F)cc4NC(=O)[C@@H]4CCC(C)N4)ncn3)cccc2s1 (stereo not given in full),10.3 mL/min/kg,120 µg/mL,7.4 µg/mL,59 µg/mL,–,–,–
CC(=O)Nc1nc2c(Oc3cc(-c4ccc(C(F)(F)F)cc4)ncn3)cccc2s1 [AMG-517],–,< 1 µg/mL,< 1 µg/mL,–,1.6 L/kg,5400 ng·h/mL,6.3 h
CC(=O)Nc1nc2c(Oc3cc(-c4ccc(C(F)(F)F)cc4NC(=O)[C@@H]4CCCN4CC(C)C)ncn3)cccc2s1,> 66.7 mL/min/kg,> 200 µg/mL,6 µg/mL,39 µg/mL,–,–,–
CC(=O)Nc1nc2c(Oc3cc(-c4ccc(C(F)(F)F)cc4NC(=O)CCN(C)C)ncn3)cccc2s1,–,81 µg/mL,3.9 µg/mL,30 µg/mL,–,–,–
CC(=O)Nc1nc2c(Oc3cc(-c4ccc(C(F)(F)F)cc4NC(=O)[C@H]4CCCN4CC(C)C)ncn3)cccc2s1,> 66.7 mL/min/kg,> 200 µg/mL,1 µg/mL,39 µg/mL,–,–,–
